# Assay results as given in patent US12378208B2, “N-substituted oseltamivir derivatives with antimicrobial activity” (THE HONG KONG POLYTECHNIC UNIVERSITY, priority 2019, dated 2025).
# Biological target: NA from A/H3N2 (Influenza A virus, UniProt O91745)
# Test: biochemical
# Format: biochemical, seasonal A/H3N2
# Settings: for IC50: Table 4, Example 34
# Chain of NA from A/H3N2 (O91745 whole entry, looked up): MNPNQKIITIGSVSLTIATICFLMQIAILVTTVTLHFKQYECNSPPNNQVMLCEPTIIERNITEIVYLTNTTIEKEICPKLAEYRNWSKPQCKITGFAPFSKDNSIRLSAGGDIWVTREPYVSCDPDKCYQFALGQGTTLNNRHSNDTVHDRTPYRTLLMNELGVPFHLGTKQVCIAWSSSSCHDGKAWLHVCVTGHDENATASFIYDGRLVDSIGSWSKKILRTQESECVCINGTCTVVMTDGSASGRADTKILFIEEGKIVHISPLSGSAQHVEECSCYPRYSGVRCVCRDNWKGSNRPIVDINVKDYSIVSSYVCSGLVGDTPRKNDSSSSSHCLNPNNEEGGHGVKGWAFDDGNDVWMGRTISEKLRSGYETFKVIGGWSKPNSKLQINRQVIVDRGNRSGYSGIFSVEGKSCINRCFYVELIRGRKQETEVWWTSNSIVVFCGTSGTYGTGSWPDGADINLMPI
Compound,% Inhibition (1 nM) [%],"Inhibition rate, 1 μM [%]","Inhibition rate, 10 μM [%]",IC50 [µM]
"CCC(CC)O[C@@H]1C=C(C(=O)O)C[C@H](NCc2noc(-c3cccs3)n2)[C@H]1NC(C)=O [Compound S1, (3R,4R,5S)-4-acetamido-3-(pentan-3-yloxy)-5-(((5-(thiophen-2-yl)-1,2,4-oxadiazol-3-yl)methyl)amino)cyclohex-1-ene-1-carboxylic acid]",0.0 ± 2.2,,,
"CCC(CC)O[C@@H]1C=C(C(=O)O)C[C@H](NCc2noc(-c3ccc(C(F)(F)F)cc3)n2)[C@H]1NC(C)=O [Compound S2, (3R,4R,5S)-4-acetamido-3-(pentan-3-yloxy)-5-(((5-(4-(trifluoromethyl)phenyl)-1,2,4-oxadiazol-3-yl)methyl)amino)cyclohex-1-ene-1-carboxylic acid]",8.0 ± 1.7,,,
"CCC(CC)O[C@@H]1C=C(C(=O)O)C[C@H](NCc2noc(-c3ccc(F)cc3)n2)[C@H]1NC(C)=O [Compound S3, (3R,4R,5S)-4-acetamido-5-(((5-(4-fluorophenyl)-1,2,4-oxadiazol-3-yl)methyl)amino)-3-(pentan-3-yloxy)cyclohex-1-ene-1-carboxylic acid]",0.0 ± 3.5,,,
CCC(CC)O[C@@H]1C=C(C(=O)O)C[C@H](NCc2noc(-c3ccccn3)n2)[C@H]1NC(C)=O [Compound S4],17.1 ± 2.0,,,
"CCC(CC)O[C@@H]1C=C(C(=O)O)C[C@H](NCc2noc(-c3ccc(Br)cc3)n2)[C@H]1NC(C)=O [Compound S5, (3R,4R,5S)-4-acetamido-5-(((5-(4-bromophenyl)-1,2,4-oxadiazol-3-yl)methyl)amino)-3-(pentan-3-yloxy)cyclohex-1-ene-1-carboxylic acid]",1.7 ± 2.1,,,
"CCC(CC)O[C@@H]1C=C(C(=O)O)C[C@H](NCc2noc(-c3cccc([N+](=O)[O-])c3)n2)[C@H]1NC(C)=O [Compound S6, (3R,4R,5S)-4-acetamido-5-(((5-(3-nitrophenyl)-1,2,4-oxadiazol-3-yl)methyl)amino)-3-(pentan-3-yloxy)cyclohex-1-ene-1-carboxylic acid]",18.4 ± 3.6,,,
"CCC(CC)O[C@@H]1C=C(C(=O)O)C[C@H](NCc2noc(-c3ccccc3)n2)[C@H]1NC(C)=O [Compound S8, (3R,4R,5S)-4-acetamido-3-(pentan-3-yloxy)-5-(((5-phenyl-1,2,4-oxadiazol-3-yl)methyl)amino)cyclohex-1-ene-1-carboxylic acid]",0.0 ± 2.0,,,
"CCC(CC)O[C@@H]1C=C(C(=O)O)C[C@H](NCc2noc(-c3ccc4ccccc4c3)n2)[C@H]1NC(C)=O [Compound S9, (3R,4R,5S)-4-acetamido-5-(((5-(naphthalen-2-yl)-1,2,4-oxadiazol-3-yl)methyl)amino)-3-(pentan-3-yloxy)cyclohex-1-ene-1-carboxylic acid]",1.5 ± 1.2,,,
"CCC(CC)O[C@@H]1C=C(C(=O)O)C[C@H](NCc2noc(-c3ccccc3C)n2)[C@H]1NC(C)=O [Compound S10, (3R,4R,5S)-4-acetamido-3-(pentan-3-yloxy)-5-(((5-(o-tolyl)-1,2,4-oxadiazol-3-yl)methyl)amino)cyclohex-1-ene-1-carboxylic acid]",0.5 ± 2.0,,,
"CCC(CC)O[C@@H]1C=C(C(=O)O)C[C@H](NCc2noc(-c3cc(OC)c(OC)c(OC)c3)n2)[C@H]1NC(C)=O [Compound S11, (3R,4R,5S)-4-acetamido-3-(pentan-3-yloxy)-5-(((5-(3,4,5-trimethoxyphenyl)-1,2,4-oxadiazol-3-yl)methyl)amino)cyclohex-1-ene-1-carboxylic acid]",3.5 ± 3.1,,,
"CCC(CC)O[C@@H]1C=C(C(=O)O)C[C@H](NCc2noc(-c3ccc(Cl)cc3)n2)[C@H]1NC(C)=O [Compound S12, (3R,4R,5S)-4-Acetamido-5-(((5-(4-chlorophenyl)-1,2,4-oxadiazol-3-yl)methyl)amino)-3-(pentan-3-yloxy)cyclohex-1-ene-1-carboxylic acid]",4.01 ± 5.9,,,
"CCC(CC)O[C@@H]1C=C(C(=O)O)C[C@H](NCc2noc(-c3c(F)cccc3F)n2)[C@H]1NC(C)=O [Compound S13, (3R,4R,5S)-4-acetamido-5-(((5-(2,6-difluorophenyl)-1,2,4-oxadiazol-3-yl)methyl)amino)-3-(pentan-3-yloxy)cyclohex-1-ene-1-carboxylic acid]",0.0 ± 2.6,,,
"CCC(CC)O[C@@H]1C=C(C(=O)O)C[C@H](NCc2ccc(-c3ccc(OC)cc3)o2)[C@H]1NC(C)=O [Compound S14, (3R,4R,5S)-4-Acetamido-5-(((5-(4-methoxyphenyl)furan-2-yl)methyl)amino)-3-(pentan-3-yloxy)cyclohex-1-ene-1-carboxylic acid]",14.7 ± 4.4,,,
"CCC(CC)O[C@@H]1C=C(C(=O)O)C[C@H](NCc2ccc(-c3ccc(F)cc3)o2)[C@H]1NC(C)=O [Compound S15, (3R,4R,5S)-4-Acetamido-5-(((5-(4-fluorophenyl)furan-2-yl)methyl)amino)-3-(pentan-3-yloxy)cyclohex-1-ene-1-carboxylic acid]",3.2 ± 3.7,,,
"CCC(CC)O[C@@H]1C=C(C(=O)O)C[C@H](NCc2ccc(-c3ccccc3C)o2)[C@H]1NC(C)=O [Compound S16, (3R,4R,5S)-4-Acetamido-3-(pentan-3-yloxy)-5-(((5-(o-tolyl)furan-2-yl)methyl)amino)cyclohex-1-ene-1-carboxylic acid]",8.4 ± 1.8,,,
"CCC(CC)O[C@@H]1C=C(C(=O)O)C[C@H](NCc2ccc(-c3cc(F)cc(F)c3)o2)[C@H]1NC(C)=O [Compound S17, (3R,4R,5S)-4-Acetamido-5-(((5-(3,5-difluorophenyl)furan-2-yl)methyl)amino)-3-(pentan-3-yloxy)cyclohex-1-ene-1-carboxylic acid]",3.7 ± 3.8,,,
"CCC(CC)O[C@@H]1C=C(C(=O)O)C[C@H](NCc2ccc(-c3ccc(OC)c(OC)c3)o2)[C@H]1NC(C)=O [Compound S18, (3R,4R,5S)-4-Acetamido-5-(((5-(3,4-dimethoxyphenyl)furan-2-yl)methyl)amino)-3-(pentan-3-yloxy)cyclohex-1-ene-1-carboxylic acid]",12.9 ± 1.2,,,
CCC(CC)O[C@@H]1C=C(C(=O)O)C[C@H](NCc2ccc(-c3cccc(Cl)c3)o2)[C@H]1NC(C)=O [Compound S19],5.5 ± 2.4,,,

Compound,% Inhibition (1 nM) [%],"Inhibition rate, 1 μM [%]","Inhibition rate, 10 μM [%]",IC50 [µM]
"CCC(CC)O[C@@H]1C=C(C(=O)O)C[C@H](NCc2ccc(-c3ccsc3)o2)[C@H]1NC(C)=O [Compound S20, (3R,4R,5S)-4-Acetamido-3-(pentan-3-yloxy)-5-(((5-(thiophen-3-yl)furan-2-yl)methyl)amino)cyclohex-1-ene-1-carboxylic acid]",12.5 ± 2.3,,,
"CCC(CC)O[C@@H]1C=C(C(=O)O)C[C@H](NCc2ccc(-c3cc(Cl)ccc3C)o2)[C@H]1NC(C)=O [Compound S21, (3R,4R,5S)-4-acetamido-5-(((5-(5-chloro-2-methylphenyl)furan-2-yl)methyl)amino)-3-(pentan-3-yloxy)cyclohex-1-ene-1-carboxylic acid]",4.8 ± 1.1,,,
"CCC(CC)O[C@@H]1C=C(C(=O)O)C[C@H](NCc2ccc(-c3cccc4c3oc3ccccc34)o2)[C@H]1NC(C)=O [Compound S23, (3R,4R,5S)-4-acetamido-5-(((5-(dibenzo[b,d]furan-4-yl)furan-2-yl)methyl)amino)-3-(pentan-3-yloxy)cyclohex-1-ene-1-carboxylic acid]",10.9 ± 0.7,,,
CCC(CC)O[C@@H]1C=C(C(=O)O)C[C@H](NCc2cc(-c3ccccc3)on2)[C@H]1NC(C)=O [Compound S24],1.6 ± 0.4,,,
CCC(CC)O[C@@H]1C=C(C(=O)O)C[C@H](NC(=O)c2cnn(Cc3ccccc3)c2)[C@H]1NC(C)=O [OC-001],,7.71,32.02,
CCC(CC)O[C@@H]1C=C(C(=O)O)C[C@H](NC(=O)c2cnn(Cc3cccc(OC)c3)c2)[C@H]1NC(C)=O [OC-002],,6.12,23.37,
CCC(CC)O[C@@H]1C=C(C(=O)O)C[C@H](NC(=O)c2cnn(Cc3cccc(Cl)c3)c2)[C@H]1NC(C)=O [OC-003],,5.74,23.88,
CCC(CC)O[C@@H]1C=C(C(=O)O)C[C@H](NC(=O)c2cnn(Cc3ccc(OC)cc3)c2)[C@H]1NC(C)=O [OC-004],,−0.21,26.79,
CCC(CC)O[C@@H]1C=C(C(=O)O)C[C@H](NC(=O)c2cnn(Cc3ccccc3Cl)c2)[C@H]1NC(C)=O [OC-005],,−1.46,18.88,
CCC(CC)O[C@@H]1C=C(C(=O)O)C[C@H](NC(=O)c2cnn(Cc3ccc(C(F)(F)F)cc3)c2)[C@H]1NC(C)=O [OC-006],,−2.25,21.72,
CCC(CC)O[C@@H]1C=C(C(=O)O)C[C@H](NC(=O)c2cnn(Cc3cccc([N+](=O)[O-])c3)c2)[C@H]1NC(C)=O [OC-007],,−5.33,12.26,
CCC(CC)O[C@@H]1C=C(C(=O)O)C[C@H](NC(=O)c2cc(-c3ccccc3)n[nH]2)[C@H]1NC(C)=O [OC-008],,5.84,42.81,
CCC(CC)O[C@@H]1C=C(C(=O)O)C[C@H](NC(=O)c2cc(-c3ccc(C(F)(F)F)cc3)n[nH]2)[C@H]1NC(C)=O [OC-009],,3.44,46.76,
CCC(CC)O[C@@H]1C=C(C(=O)O)C[C@H](NC(=O)c2cnn(-c3ccc(C)cc3)c2)[C@H]1NC(C)=O [OC-010],,8.96,52.31,43.9
CCC(CC)O[C@@H]1C=C(C(=O)O)C[C@H](NC(=O)c2cc(-c3ccc(Cl)cc3)n[nH]2)[C@H]1NC(C)=O [OC-011],,14.65,50.43,
CCC(CC)O[C@@H]1C=C(C(=O)O)C[C@H](NC(=O)c2cc(-c3ccc(F)cc3)n[nH]2)[C@H]1NC(C)=O [OC-012],,33.62,56.45,11.6
CCC(CC)O[C@@H]1C=C(C(=O)O)C[C@H](NC(=O)c2cc(C3CC3)nn2-c2ccccc2)[C@H]1NC(C)=O [OC-013],,19.92,30.41,
